Test results taken from the supplement of paper PMC10307832.

Assays:
Experiment in all cases: relative viability (nuclei count vs DMSO), 5 days (fraction); higher = more cells survive
[1] = compound: COc1cc(Nc2ncc3c(n2)-c2ccc(Cl)cc2C(c2c(F)cccc2OC)=NC3)ccc1C(=O)O [Alisertib] + CC(=O)Nc1cccc(-n2c(=O)n(C3CC3)c(=O)c3c(Nc4ccc(I)cc4F)n(C)c(=O)c(C)c32)c1 [Trametinib] (partner 0.02 µM)
Method in brief: (§1)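 One day after seeding in 1536-well plates, lung cancer cell lines were dosed by pin tool. Dosing was either single-drug or a fixed anchor-drug dose plus five library-drug doses (not always all listed) in √10 steps. After 5 days, nuclei were stained in one fix-and-stain step and counted on 4× images, and relative viability is the nuclei count of treated wells over that of vehicle wells, given as the median of duplicate plates.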

[2] = compound: COc1cc(Nc2ncc3c(n2)-c2ccc(Cl)cc2C(c2c(F)cccc2OC)=NC3)ccc1C(=O)O [Alisertib] + CC1(C)CCC(c2ccc(Cl)cc2)=C(CN2CCN(c3ccc(C(=O)NS(=O)(=O)c4ccc(N[C@H](CCN5CCOCC5)CSc5ccccc5)c(S(=O)(=O)C(F)(F)F)c4)cc3)CC2)C1 [Navitoclax] (partner 0.5 µM)
Method in brief: as §1

[3] = compound: COc1cc(Nc2ncc3c(n2)-c2ccc(Cl)cc2C(c2c(F)cccc2OC)=NC3)ccc1C(=O)O [Alisertib] + N=C(N)NC(=N)NCCc1ccccc1 [Phenformin] (partner 250 µM)
Method in brief: as §1

[4] = compound: COc1cc(Nc2ncc3c(n2)-c2ccc(Cl)cc2C(c2c(F)cccc2OC)=NC3)ccc1C(=O)O [Alisertib] + Nc1nc2[nH]cc(CCc3ccc(C(=O)N[C@@H](CCC(=O)O)C(=O)O)cc3)c2c(=O)[nH]1 [Pemetrexed] (partner 0.2 µM)
Method in brief: as §1

Cell Line	relative viability ([1]; first compound 0.005 µM)	relative viability ([1]; first compound 0.01581 µM)	relative viability ([1]; first compound 0.05 µM)	relative viability ([1]; first compound 0.1581 µM)	relative viability ([1]; first compound 0.5 µM)	relative viability ([2]; first compound 0.005 µM)	relative viability ([2]; first compound 0.01581 µM)	relative viability ([2]; first compound 0.05 µM)	relative viability ([2]; first compound 0.1581 µM)	relative viability ([2]; first compound 0.5 µM)	relative viability ([3]; first compound 0.005 µM)	relative viability ([3]; first compound 0.01581 µM)	relative viability ([3]; first compound 0.05 µM)	relative viability ([3]; first compound 0.1581 µM)	relative viability ([3]; first compound 0.5 µM)	relative viability ([4]; first compound 0.005 µM)	relative viability ([4]; first compound 0.01581 µM)	relative viability ([4]; first compound 0.05 µM)	relative viability ([4]; first compound 0.1581 µM)	relative viability ([4]; first compound 0.5 µM)
SW 1573	0.512	0.533	0.121	0.119	0.104	0.954	0.737	0.219	0.0904	0.0636	0.371	0.256	0.178	0.113	0.0928	0.781	0.767	0.269	0.21	0.114
EMC-BAC-2	0.839	0.681	0.439	0.347	0.304	1.08	0.978	0.362	0.296	0.18	0.389	0.343	0.27	0.245	0.197	0.445	0.429	0.447	0.405	0.3
NCI-H1650	0.558	0.565	0.295	0.145	0.191	0.967	0.613	0.286	0.145	0.131	0.38	0.381	0.167	0.137	0.141	0.402	0.362	0.256	0.223	0.189
NCI-H647	0.358	0.493	0.228	0.159	0.113	1.05	1.06	0.293	0.169	0.0658	0.456	0.336	0.168	0.0894	0.0773	0.155	0.178	0.122	0.0903	0.0745
LCLC-97TM1	0.202	0.201	0.124	0.126	0.0987	0.523	0.353	0.121	0.116	0.115	0.451	0.386	0.333	0.174	0.153	0.162	0.173	0.186	0.118	0.0781
H3255	0.662	0.637	0.441	0.309	0.295	0.484	0.415	0.355	0.0997	0.0929	0.329	0.338	0.313	0.299	0.294	0.516	0.572	0.457	0.309	0.255
LXF-289	0.586	0.628	0.265	0.192	0.152	0.847	0.586	0.191	0.173	0.137	0.434	0.338	0.325	0.114	0.109	0.794	0.61	0.376	0.169	0.174
NCI-H596	0.816	0.787	0.776	0.542	0.327		0.906	1.07	0.808	0.199	0.675	0.875	0.759	0.822	0.393	0.504	0.506	0.473	0.447	0.38
